Measurements: patent US20180185408A1, “ANTIFUNGAL NYLON-3 POLYMERS AND COMBINATION THERAPY USING THEM TO TREAT FUNGAL INFECTIONS” (priority 2016, published 2018)
Like-named read-outs stand apart in the source and are kept apart here.

Assays:
Candida albicans = assay: MIC by broth microdilution (CLSI M27-A3); assay type: cell-based
Candida lusitaniae = assay: MIC by broth microdilution (CLSI M27-A3); assay type: cell-based

C[C@@H]1[C@H](O)[C@@H](C)/C=C/C=C/C=C/C=C/C=C/C=C/C=C/[C@H](O[C@@H]2O[C@H](C)[C@@H](O)[C@H](N)[C@@H]2O)C[C@@H]2O[C@](O)(C[C@@H](O)C[C@@H](O)[C@H](O)CC[C@@H](O)C[C@@H](O)CC(=O)O[C@H]1C)C[C@H](O)[C@H]2C(=O)O [AMB, amphotericin B]
MIC (Candida albicans; C. albicans (E4), Amp B Resistant, RPMI 1640 (0.2% Glucose), […]10^5 cells/mL, 30° C.): 3.13 µg/mL
MIC (Candida albicans; C. albicans (E4), […]10^3 cells/mL, 35°C, read-out: MIC): 3.4 µM
MIC (Candida albicans; C. albicans (Gu5), Fluconazole Resistant, RPMI 1640 (0.2% Glucose), […]10^5 cells/mL, 30° C.): 0.78 µg/mL
MIC (Candida albicans; C. albicans (Gu5), […]10^3 cells/mL, 35°C, read-out: MIC): 0.9 µM
MIC (Candida albicans; C. albicans (K1), Fluconazole Resistant, RPMI 1640 (0.2% Glucose), […]10^5 cells/mL, 30° C.): 0.78 µg/mL
MIC (Candida albicans; C. albicans (K1), […]10^3 cells/mL, 35°C, read-out: MIC): 1.7 µM
MIC (Candida albicans; C. albicans (SC5314), […]10^3 cells/mL, 35°C, read-out: MIC): 0.9 µM
MIC (Candida albicans; C. albicans (SCG5314), Sensitive, RPMI 1640 (0.2% Glucose), […]10^5 cells/mL, 30° C.): 0.78 µg/mL
MIC (Candida albicans; E4, […]10^3 cells/mL, 35°C, OD600 24 h, avg.): 6.3 µg/mL
MIC (Candida albicans; E4, […]10^3 cells/mL, 35°C, OD600 24 h, avg., read-out: MIC): 6.8 µM
MIC (Candida albicans; E4, […]10^3 cells/mL, 35°C, OD600 24 h, trial 1): 6.3 µg/mL
MIC (Candida albicans; E4, […]10^3 cells/mL, 35°C, OD600 24 h, trial 1, read-out: MIC): 6.8 µM
MIC (Candida albicans; E4, […]10^3 cells/mL, 35°C, OD600 24 h, trial 2): 6.3 µg/mL
MIC (Candida albicans; E4, […]10^3 cells/mL, 35°C, OD600 24 h, trial 2, read-out: MIC): 6.8 µM
MIC (Candida albicans; E4, […]10^5 cells/mL, 30°C, OD600 48 h, avg.): 3.1 µg/mL
MIC (Candida albicans; E4, […]10^5 cells/mL, 30°C, OD600 48 h, avg., read-out: MIC): 3.4 µM
MIC (Candida albicans; E4, […]10^5 cells/mL, 30°C, OD600 48 h, trial 1): 3.1 µg/mL
MIC (Candida albicans; E4, […]10^5 cells/mL, 30°C, OD600 48 h, trial 1, read-out: MIC): 3.4 µM
MIC (Candida albicans; E4, […]10^5 cells/mL, 30°C, OD600 48 h, trial 2): 3.1 µg/mL
MIC (Candida albicans; E4, […]10^5 cells/mL, 30°C, OD600 48 h, trial 2, read-out: MIC): 3.4 µM
MIC (Candida albicans; Gu5, […]10^3 cells/mL, 35°C, OD600 24 h, avg.): 2.0 µg/mL
MIC (Candida albicans; Gu5, […]10^3 cells/mL, 35°C, OD600 24 h, avg., read-out: MIC): 2.2 µM
MIC (Candida albicans; Gu5, […]10^3 cells/mL, 35°C, OD600 24 h, trial 1): <1.6 µg/mL
MIC (Candida albicans; Gu5, […]10^3 cells/mL, 35°C, OD600 24 h, trial 1, read-out: MIC): <1.7 µM
MIC (Candida albicans; Gu5, […]10^3 cells/mL, 35°C, OD600 24 h, trial 2): 3.1 µg/mL
MIC (Candida albicans; Gu5, […]10^3 cells/mL, 35°C, OD600 24 h, trial 2, read-out: MIC): 3.4 µM
MIC (Candida albicans; Gu5, […]10^5 cells/mL, 30°C, OD600 48 h, avg.): 0.8 µg/mL
MIC (Candida albicans; Gu5, […]10^5 cells/mL, 30°C, OD600 48 h, avg., read-out: MIC): 0.9 µM
MIC (Candida albicans; Gu5, […]10^5 cells/mL, 30°C, OD600 48 h, trial 1): 0.8 µg/mL
MIC (Candida albicans; Gu5, […]10^5 cells/mL, 30°C, OD600 48 h, trial 1, read-out: MIC): 0.9 µM
MIC (Candida albicans; Gu5, […]10^5 cells/mL, 30°C, OD600 48 h, trial 2): 0.8 µg/mL
MIC (Candida albicans; Gu5, […]10^5 cells/mL, 30°C, OD600 48 h, trial 2, read-out: MIC): 0.9 µM
MIC (Candida albicans; K1, […]10^3 cells/mL, 35°C, OD600 24 h, avg.): <1.6 µg/mL
MIC (Candida albicans; K1, […]10^3 cells/mL, 35°C, OD600 24 h, avg., read-out: MIC): <1.7 µM
MIC (Candida albicans; K1, […]10^3 cells/mL, 35°C, OD600 24 h, trial 1): <1.6 µg/mL
MIC (Candida albicans; K1, […]10^3 cells/mL, 35°C, OD600 24 h, trial 1, read-out: MIC): <1.7 µM
MIC (Candida albicans; K1, […]10^3 cells/mL, 35°C, OD600 24 h, trial 2): <1.6 µg/mL
MIC (Candida albicans; K1, […]10^3 cells/mL, 35°C, OD600 24 h, trial 2, read-out: MIC): <1.7 µM
MIC (Candida albicans; K1, […]10^5 cells/mL, 30°C, OD600 48 h, avg.): 1.6 µg/mL
MIC (Candida albicans; K1, […]10^5 cells/mL, 30°C, OD600 48 h, avg., read-out: MIC): 1.7 µM
MIC (Candida albicans; K1, […]10^5 cells/mL, 30°C, OD600 48 h, trial 1): 1.6 µg/mL
MIC (Candida albicans; K1, […]10^5 cells/mL, 30°C, OD600 48 h, trial 1, read-out: MIC): 1.7 µM
MIC (Candida albicans; K1, […]10^5 cells/mL, 30°C, OD600 48 h, trial 2): 1.6 µg/mL
MIC (Candida albicans; K1, […]10^5 cells/mL, 30°C, OD600 48 h, trial 2, read-out: MIC): 1.7 µM
MIC (Candida albicans; SC5314, […]10^3 cells/mL, 35°C, OD600 24 h, avg.): 4.7 µg/mL
MIC (Candida albicans; SC5314, […]10^3 cells/mL, 35°C, OD600 24 h, avg., read-out: MIC): 5.1 µM
MIC (Candida albicans; SC5314, […]10^3 cells/mL, 35°C, OD600 24 h, trial 1): 3.1 µg/mL
MIC (Candida albicans; SC5314, […]10^3 cells/mL, 35°C, OD600 24 h, trial 1, read-out: MIC): 3.4 µM
MIC (Candida albicans; SC5314, […]10^3 cells/mL, 35°C, OD600 24 h, trial 2): 6.3 µg/mL
MIC (Candida albicans; SC5314, […]10^3 cells/mL, 35°C, OD600 24 h, trial 2, read-out: MIC): 6.8 µM
MIC (Candida albicans; SC5314, […]10^5 cells/mL, 30°C, OD600 48 h, avg.): 0.8 µg/mL
MIC (Candida albicans; SC5314, […]10^5 cells/mL, 30°C, OD600 48 h, avg., read-out: MIC): 0.9 µM
MIC (Candida albicans; SC5314, […]10^5 cells/mL, 30°C, OD600 48 h, trial 1): 0.8 µg/mL
MIC (Candida albicans; SC5314, […]10^5 cells/mL, 30°C, OD600 48 h, trial 1, read-out: MIC): 0.9 µM
MIC (Candida albicans; SC5314, […]10^5 cells/mL, 30°C, OD600 48 h, trial 2): 0.8 µg/mL
MIC (Candida albicans; SC5314, […]10^5 cells/mL, 30°C, OD600 48 h, trial 2, read-out: MIC): 0.9 µM
MIC (Candida lusitaniae; C. Lusitania (CL3), Sensitive, RPMI 1640 (0.2% Glucose), […]10^5 cells/mL, 30° C.): 0.4 µg/mL
MIC (Candida lusitaniae; C. lusitaniae (CL3), […]10^3 cells/mL, 35°C, read-out: MIC): 0.4 µM
MIC (Candida lusitaniae; CL3, […]10^3 cells/mL, 35°C, OD600 24 h, avg.): <1.6 µg/mL
MIC (Candida lusitaniae; CL3, […]10^3 cells/mL, 35°C, OD600 24 h, avg., read-out: MIC): <1.7 µM
MIC (Candida lusitaniae; CL3, […]10^3 cells/mL, 35°C, OD600 24 h, trial 1): <1.6 µg/mL
MIC (Candida lusitaniae; CL3, […]10^3 cells/mL, 35°C, OD600 24 h, trial 1, read-out: MIC): <1.7 µM
MIC (Candida lusitaniae; CL3, […]10^3 cells/mL, 35°C, OD600 24 h, trial 2): <1.6 µg/mL
MIC (Candida lusitaniae; CL3, […]10^3 cells/mL, 35°C, OD600 24 h, trial 2, read-out: MIC): <1.7 µM
MIC (Candida lusitaniae; CL3, […]10^5 cells/mL, 30°C, OD600 48 h, avg.): 0.4 µg/mL
